Counter-ions that a name gives are not always drawn. Like-named read-outs stand apart in the source and are kept apart here.
Assays:
Experiment in all cases: MIC, standard broth dilution method in microtitre
Assay type in all cases: cell-based
[1] = test system: erythromycin resistant strains of Streptococcus pyogenes
Protocol: (§1) Using a standard broth dilution method in microtitre, compounds were tested for antibacterial activity. The compounds in the above examples gave minimum inhibitory concentrations (MICs) less than 1 microgram per millilitre against erythromycin-sensitive and erythromycin-resistant strains of Streptococcus pneumoniae and Streptococcus pyogenes.

[2] = test system: erythromycin resistant strains of Streptococcus pneumoniae
Protocol: as §1

E. faecalis ATCC 29212 = settings: Enterococcus faecalis, ATCC29212
Protocol: as §1
(§2) In addition, the MIC (μg/ml) of test compounds against various organisms was determined including:
(§3) S. aureus Smith ATCC 13709, S. pneumoniae SP030, S. pyogenes 3565, E. faecalis ATCC 29212, H. influenzae ATCC 49247, M. catarrhalis ATCC 23246.

S. pyogenes 3565 = settings: Streptococcus pyogenes
Protocol: as §1, §2, §3

H. influenzae ATCC 49247 = settings: Haemophilus influenzae, ATCC49247
Protocol: as §1, §2, §3

[3] = test system: M. catarrhalis ATCC 23246; settings: Moraxella catarrhalis, ATCC23246
Protocol: as §1, §2, §3

S. pneumoniae SP030 = settings: Streptococcus pneumoniae
Protocol: as §1, §2, §3

[4] = test system: S. aureus Smith ATCC 13709; settings: Staphylococcus aureus, ATCC13709
Protocol: as §1, §2, §3

[5] = H. influenzae ATCC 49247, read-out: MIC

Row | SMILES | MIC [1] [µg/mL] | MIC [2] [µg/mL] | MIC (E. faecalis ATCC 29212) [µg/mL] | MIC (S. pyogenes 3565) [µg/mL] | MIC [3] [µg/mL] | MIC (S. pneumoniae SP030) [µg/mL] | MIC [4] [µg/mL] | MIC (H. influenzae ATCC 49247; [5]) [µg/mL] | MIC (H. influenzae ATCC 49247) [µg/mL]
1 | CC[C@@H]1OC(=O)[C@H](C)[C@H](O[C@H]2C[C@](C)(OC)[C@@H](OCCN(C)CCNc3cc4c(cc3F)c(=O)c(C(=O)O)cn4C3CC3)[C@@H](C)O2)[C@@H](C)[C@H](O[C@H]2O[C@@H](C)C[C@@H](N(C)C)[C@H]2O)[C@](C)(OC)C[C@H](C)C(=O)[C@H](C)[C@H]2OC(=O)O[C@@]12C [Example 1, 4″-O-(2-{[2-(3-Carboxy-1-cyclopropyl-6-fluoro-4-oxo-1,4-dihydro-quinolin-7-ylamino)-ethyl]-methylamino}-ethyl)-6-O-methyl-erythromycin A 11,12-carbonate bis trifluoroacetate] | ≤ 1 | ≤ 1 | ≤ 1 | ≤ 1 | ≤ 4 | ≤ 1 | ≤ 1 | – | ≤ 4
2 | CC[C@@H]1OC(=O)[C@H](C)[C@H](O[C@@H]2C[C@](C)(OC)[C@H](OCCCNCCSc3ccc4c(c3)c(=O)c(C(=O)O)cn4CC)[C@H](C)O2)[C@@H](C)[C@H](O[C@H]2O[C@@H](C)C[C@@H](N(C)C)[C@H]2O)[C@](C)(OC)C[C@H](C)C(=O)[C@H](C)[C@H]2OC(=O)O[C@@]12C [Example 4, 4″-O-{3-[2-(3-Carboxy-1-ethyl-4-oxo-1,4-dihydro-quinolin-6-ylsulfanyl)-ethylamino]-propyl}-6-O-methyl-erythromycin A 11,12-carbonate bisformate] | ≤ 1 | ≤ 1 | – | – | ≤ 4 | – | – | ≤ 4 | –
3 | CC[C@@H]1OC(=O)[C@H](C)[C@H](O[C@@H]2C[C@](C)(OC)[C@H](OCCCN(C)CCCc3ccc4c(c3)c(=O)c(C(=O)O)cn4CC)[C@H](C)O2)[C@@H](C)[C@H](O[C@H]2O[C@@H](C)C[C@@H](N(C)C)[C@H]2O)[C@](C)(OC)C[C@H](C)C(=O)[C@H](C)[C@H]2OC(=O)O[C@@]12C [Example 13, 4″-O-(3-{[3-(3-Carboxy-1-ethyl-4-oxo-1,4-dihydro-quinolin-6-yl)propyl]-methylamino}-propyl)-6-O-methyl-erythromycin A 11,12-carbonate formate] | ≤ 1 | ≤ 1 | ≤ 1 | ≤ 1 | ≤ 4 | ≤ 1 | ≤ 1 | ≤ 4 | –
4 | CC[C@@H]1OC(=O)[C@H](C)[C@H](O[C@@H]2C[C@](C)(OC)[C@H](OCCCN(C)CCNc3nc4c(cc3F)c(=O)c(C(=O)O)cn4CC)[C@H](C)O2)[C@@H](C)[C@H](O[C@H]2O[C@@H](C)C[C@@H](N(C)C)[C@H]2O)[C@](C)(OC)C[C@H](C)C(=O)[C@H](C)[C@H]2OC(=O)O[C@@]12C [Example 15] | ≤ 1 | ≤ 1 | ≤ 1 | ≤ 1 | ≤ 4 | ≤ 1 | ≤ 1 | ≤ 4 | –
5 | CC[C@@H]1OC(=O)[C@H](C)[C@H](O[C@@H]2C[C@](C)(OC)[C@H](OCCNCCCc3ccc4c(c3)c(=O)c(C(=O)O)cn4CC)[C@H](C)O2)[C@@H](C)[C@H](O[C@H]2O[C@@H](C)C[C@@H](N(C)C)[C@H]2O)[C@](C)(O)C[C@H](C)CN(C)[C@@H](C)[C@H]2OC(=O)O[C@@]12C [Example 16, 4″-O-{2-[3-(3-Carboxy-1-ethyl-4-oxo-1,4-dihydro-quinolin-6-yl)propylamino]ethyl}azithromycin 11,12-carbonate] | – | – | – | – | ≤ 4 | – | – | ≤ 4 | –
6 | CC[C@@H]1OC(=O)[C@H](C)[C@H](O[C@@H]2C[C@](C)(OC)[C@H](OCCNCCNc3nc4c(cc3F)c(=O)c(C(=O)O)cn4CC)[C@H](C)O2)[C@@H](C)[C@H](O[C@H]2O[C@@H](C)C[C@@H](N(C)C)[C@H]2O)[C@](C)(OC)C[C@H](C)C(=O)[C@H](C)[C@H](O)[C@@]1(C)O [Example 18, 4″-O-{2-[2-(3-Carboxy-1-ethyl-6-fluoro-4-oxo-1,4-dihydro-[1,8]naphthyridin-7-ylamino)ethyl]-amino}-ethyl}-6-O-methyl-erythromycin A monoformate] | ≤ 1 | ≤ 1 | ≤ 1 | ≤ 1 | ≤ 4 | ≤ 1 | ≤ 1 | ≤ 4 | –
7 | CC[C@@H]1OC(=O)[C@H](C)[C@H](O[C@@H]2C[C@](C)(OC)[C@H](OCCN(C)CCNc3nc4c(cc3F)c(=O)c(C(=O)O)cn4CC)[C@H](C)O2)[C@@H](C)[C@H](O[C@H]2O[C@@H](C)C[C@@H](N(C)C)[C@H]2O)[C@](C)(OC)C[C@H](C)C(=O)[C@H](C)[C@H](O)[C@@]1(C)O [Example 19] | ≤ 1 | ≤ 1 | ≤ 1 | ≤ 1 | ≤ 4 | ≤ 1 | ≤ 1 | ≤ 4 | –

Further lines, with some results ahead:

Row | MIC [1] [µg/mL] | MIC [2] [µg/mL] | MIC (E. faecalis ATCC 29212) [µg/mL] | MIC (S. pyogenes 3565) [µg/mL] | MIC [3] [µg/mL] | MIC (S. pneumoniae SP030) [µg/mL] | MIC [4] [µg/mL] | MIC (H. influenzae ATCC 49247; [5]) [µg/mL] | SMILES | MIC (H. influenzae ATCC 49247) [µg/mL]
8 | ≤ 1 | ≤ 1 | ≤ 1 | ≤ 1 | ≤ 4 | ≤ 1 | ≤ 1 | ≤ 4 | CC[C@@H]1OC(=O)[C@H](C)[C@H](O[C@@H]2C[C@](C)(OC)[C@H](OCCCN(C)CCNc3cc4c(cc3F)c(=O)c(C(=O)O)cn4C3CC3)[C@H](C)O2)[C@@H](C)[C@H](O[C@H]2O[C@@H](C)C[C@@H](N(C)C)[C@H]2O)[C@](C)(OC)C[C@H](C)C(=O)[C@H](C)[C@H]2OC(=O)O[C@@]12C [Example 2, 4″-O-(3-{[2-(3-Carboxy-1-cyclopropyl-6-fluoro-4-oxo-1,4-dihydro-quinolin-7-ylamino)ethyl]-methylamino}-propyl)-6-O-methyl-erythromycin A 11,12-carbonate] | –
9 | ≤ 1 | ≤ 1 | ≤ 1 | ≤ 1 | ≤ 4 | ≤ 1 | ≤ 1 | ≤ 4 | CC[C@@H]1OC(=O)[C@H](C)[C@H](O[C@@H]2C[C@](C)(OC)[C@H](OCCCNCCOc3cc4c5c(c3)c(=O)c(C(=O)O)cn5CCC4)[C@H](C)O2)[C@@H](C)[C@H](O[C@H]2O[C@@H](C)C[C@@H](N(C)C)[C@H]2O)[C@](C)(OC)C[C@H](C)C(=O)[C@H](C)[C@H]2OC(=O)O[C@@]12C [Example 6, 4″-O-{3-[2-(2-Carboxy-1-oxo-6,7-dihydro-1H,5H-pyrido[3,2,1-ij]quinoline-9-yloxy)-ethylamino]-propyl}-6-O-methyl-erythromycin A 11,12-carbonate bisformate] | –
10 | ≤ 1 | ≤ 1 | – | – | ≤ 4 | – | – | ≤ 4 | CC[C@@H]1OC(=O)[C@H](C)[C@H](O[C@@H]2C[C@](C)(OC)[C@H](OCCCN(C)CCNc3cc4c(=O)c(C(=O)O)cn(C5CC5)c4cc3Cl)[C@H](C)O2)[C@@H](C)[C@H](O[C@H]2O[C@@H](C)C[C@@H](N(C)C)[C@H]2O)[C@](C)(OC)C[C@H](C)C(=O)[C@H](C)[C@H]2OC(=O)O[C@@]12C [Example 14, 4″-O-(3-{[2-(3-Carboxy-7-chloro-1-cyclopropyl-4-oxo-1,4-dihydro-quinolin-6-ylamino)ethyl]-methylamino}-propyl)-6-O-methyl-erythromycin A 11,12-carbonate] | –
11 | ≤ 1 | ≤ 1 | ≤ 1 | ≤ 1 | ≤ 4 | ≤ 1 | ≤ 1 | ≤ 4 | CC[C@@H]1OC(=O)[C@H](C)[C@H](O[C@@H]2C[C@](C)(OC)[C@H](OCCCOCCCc3ccc4c(c3)c(=O)c(C(=O)O)cn4CC)[C@H](C)O2)[C@@H](C)[C@H](O[C@H]2O[C@@H](C)C[C@@H](N(C)C)[C@H]2O)[C@](C)(OC)C[C@H](C)C(=O)[C@H](C)[C@H](O)[C@@]1(C)O [Example 20, 4″-O-{3-[3-(3-Carboxy-1-ethyl-4-oxo-1,4-dihydro-quinolin-6-yl)-propoxy]-propyl}-6-O-methyl-erythromycin A monoformate] | –
12 | ≤ 1 | ≤ 1 | ≤ 1 | ≤ 1 | ≤ 4 | ≤ 1 | ≤ 1 | ≤ 4 | CC[C@H]1OC(=O)[C@H](C)[C@@H](O[C@H]2C[C@@](C)(OC)[C@@H](OCCCNCCNc3nc4c(cc3F)c(=O)c(C(=O)O)cn4CC)[C@H](C)O2)[C@H](C)[C@@H](O[C@@H]2O[C@H](C)CC(N(C)C)[C@H]2O)[C@](C)(OC)C[C@@H](C)C(=O)[C@@H](C)[C@H]2NC(=O)O[C@@]21C (stereo partly drawn) [Example 21, 4″-O-{3-[2-(3-Carboxy-1-ethyl-6-fluoro-4-oxo-1,4-dihydro-[1,8]naphthyridin-7-ylamino)-ethylamino]-propyl}-6-O-methyl-11-desoxy-11-(R)-amino-erythromycin A 11,12-carbamate formate] | –
13 | ≤ 1 | ≤ 1 | ≤ 1 | ≤ 1 | ≤ 4 | ≤ 1 | ≤ 1 | ≤ 4 | CC[C@H]1OC(=O)[C@H](C)[C@@H](O[C@H]2C[C@@](C)(OC)[C@@H](OCCCNCCCc3ccc4c(c3C)c(=O)c(C(=O)O)cn4CC)[C@H](C)O2)[C@H](C)[C@@H](O[C@@H]2O[C@H](C)CC(N(C)C)[C@H]2O)[C@](C)(OC)C[C@@H](C)C(=O)[C@@H](C)[C@H]2NC(=O)O[C@@]21C (stereo partly drawn) [Example 23, 4″-O-{3-[3-(3-Carboxy-1-ethyl-5-methyl-4-oxo-1,4-dihydro-quinolin-6-yl)-propylamino]-propyl}-6-O-methyl-11-desoxy-11-(R)-amino-erythromycin A 11,12-carbamate formate] | –

From patent US7569550B2, “14 and 15 membered ring compounds” (Glaxo Group Limited, priority 2003, dated 2009)
